Data taken from patent US20230071014A1 (priority 2020, published 2023).

How the values were obtained:
SARS-CoV = settings: cited from earlier work; for Inhibitory activity against SARS-CoV: Thorax 2004, 59: 252-256
SARS-CoV-2 = assay: Ritonavir reducing viral nucleic acid load in SARS-CoV-2 infected Vero E6 cells (qRT-PCR); type: cell-based, SARS-CoV-2 (nCoV-2019BetaCoV/Wuhan/WIV04/2019 strain); settings: for Copy number of virus genome: Vero E6 cells, supernatant, vehicle 5762396
Protocol: (1) Drug Treatment of Virus-Infected Cells
Vero E6 cells (purchased from ATCC, Catalog No. 1586) was inoculated on a 24-well plate, cultured for 24 hours; then virus infection was carried out. Specifically, SARS-CoV-2 (2019-nCoV) virus (nCoV-2019BetaCoV/Wuhan/WIV04/2019 strain, provided by Wuhan Institute of Virology, Chinese Academy of Sciences) was diluted with 2% cell maintenance solution (formulation: FBS (purchased from Gibco company, Catalog No. 16000044) was added to MEM (purchased from Gibco, Catalog No. 10370021) at a volume ratio of 2%, thereby obtaining the 2% cell maintenance solution) to a corresponding concentration, and then added to a 24-well plate so that each well contained a viral load of 100TCID50. […] To the vehicle control group, the 2% cell maintenance solution without any test drugs was added.
RNA extraction kit was purchased from Qiagen Company, Catalog No. 74106. The consumables (spin columns, RNase-free 2 ml collection tubes, etc.) and reagents (RLT, RW1, RPE, RNase-free water, etc.) involved in the following RNA extraction steps were part of the kit. The following extraction steps were recommended steps in the kit instruction.
1) 100 μL of the supernatant was taken from the tested plate and added to a nuclease-free EP tube, then 350 μL of Buffer RLT was added to each well and mixed by beating with a transfer liquid gun until complete lysis was achieved, then centrifugation was carried out to obtain a supernatant;
2) an equal volume of 70% ethanol was added to the supernatant obtained in 1) and mixed well;
3) the mixture solution obtained in 2) was transferred to a RNase-free spin column, and centrifuged at 12000 rpm for 15 seconds, and the waste liquid was discarded;
4) 700 μL of Buffer RW1 was added to the spin column, and centrifuged at 12000 rpm for 15 seconds to clean the spin column, and the waste liquid was discarded;
5) 500 μL of Buffer RPE was added to the spin column, and centrifuged at 12000 rpm for 15 seconds to clean the spin column, and the waste liquid was discarded;
6) 500 μL of Buffer RPE was added to the spin column, and centrifuged at 12000 rpm for 2 min to clean the spin column, the waste was discarded;
7) a new RNase-free 2 ml collection tube was used for replacement, centrifugation was carried out at 12000 rpm for 1 min, the spin column was dried, and then the spin column was transferred to a 1.5 ml collection tube in step 8);
8) a new 1.5 ml collection tube was used for replacement, in which the spin column dried in step 7) was placed, and […] of RNase-free water was added to the spin column, and centrifugation was carried out at 12000 rpm for 2 minutes, the obtained eluate contained the corresponding RNA, then the RNase inhibitor (purchased from NEB company, Catalog No. […]) was added, and Nano Drop (purchased from Thermo scientific, Nano Drop One) was used to detect each RNA concentration.
(3) RNA Reverse Transcription
In the experiment, the reverse transcription kit (PrimeScript™ RT reagent Kit with gDNA Eraser, Catalog No. RRO47Q) produced by TaKaRa was used for RNA reverse transcription.
The steps were as follows.
(1) Removal of gDNA: RNA samples of each experimental group were collected, 1 μg of each sample was taken for reverse transcription. First, 2 μl of 5×gDNA Eraser Buffer was added to the RNA sample of each experimental group, the reaction system was supplemented with RNase-free water to reach 10 μl, mixed well, and subjected to water bath at 42° C. for 2 min to remove the gDNA that might be present in the sample;
(2) Reverse transcription: Appropriate amounts of enzyme, primer Mix and reaction buffer were added to the sample obtained in […], RNase-free water was added to supplement to reach a volume of 20 μl, the reaction was performed in a water bath at 37° C. for 15 minutes, and then in water bath at 85° C. for 5 seconds, to obtain cDNA by transcription. […]

HIV-1 isolates = settings: low passage clinical isolates, n=13; cited from earlier work

SMILES | Inhibitory activity against SARS-CoV (SARS-CoV) | Copy number of virus genome (SARS-CoV-2; 0.14 μM, 48 hours after infection) | Copy number of virus genome (SARS-CoV-2; 0.41 μM, 48 hours after infection) | Copy number of virus genome (SARS-CoV-2; 1.23 μM, 48 hours after infection) | Copy number of virus genome (SARS-CoV-2; 3.70 μM, 48 hours after infection) | Copy number of virus genome (SARS-CoV-2; 11.11 μM, 48 hours after infection) | Copy number of virus genome (SARS-CoV-2; 33.33 μM, 48 hours after infection) | Reduction of viral RNA load in Vero E6 cells infected by SARS-CoV-2 (SARS-CoV-2; 48 hours after infection, FIG. 1) | Inhibition of the replication of SARS-CoV-2 virus genome in the infected supernatant (SARS-CoV-2; at concentrations of 33 μM, 11.1 μM) | EC50 (HIV-1 isolates) | Effectiveness against SARS-CoV (SARS-CoV; Biochemical and Biophysical Research Communications 318 (2004) 719-725)
Cc1cccc(C)c1OCC(=O)N[C@@H](Cc1ccccc1)[C@@H](O)C[C@H](Cc1ccccc1)NC(=O)[C@H](C(C)C)N1CCCNC1=O [lopinavir] | inhibits SARS-CoV | – | – | – | – | – | – | – | – | – | –
CC(C)c1nc(CN(C)C(=O)N[C@H](C(=O)N[C@@H](Cc2ccccc2)C[C@H](O)[C@H](Cc2ccccc2)NC(=O)OCc2cncs2)C(C)C)cs1 [ritonavir, [5S-(5R,8R,10R,11R)]-10-hydroxy-2-methyl-5-(1-methylethyl)-1-[2-(1-methylethyl)-4-thiazolyl]-3,6-dioxo-8,11-bis(phenylmethyl)-2,4,7,12-tetraazatridecan-13-oic acid, 5-thiazolyl methyl ester] | does not have inhibitory activity | 6032699 | 5632446 | 5565821 | 6213595 | 2236225 | 1855399 | inhibitory activity is dose-dependent | could effectively inhibit | 22 nM | ineffective
